Assay results taken from patent US10010545B1, “Antibiotic compositions and methods of use” (University of South Florida, priority 2013, dated 2018).

Experiments:
Enterococcus faecium = assay: Growth testing against ESKAPE pathogens: Enterococcus faecium; assay type: cell-based; set-up: key: Growth; X: No Growth
Description: (§1) Six analogs (FIG. 2) of the ciprofloxacin-N thiolated β-lactam were successfully synthesized. All these compounds were then tested against ESKAPE pathogens for bioactivity. The ESKAPE pathogens are a collection of six deadly superbugs, Enterococcus faecium, Staphylococcus aureus, Klebsiella pneumoniae, Acinetobacter baumannii, Pseudomonas aeruginosa, and Enterobacter species. […] G denotes growth and X denotes no growth in the tables.

Klebesiella pneumonia = assay: Growth testing against ESKAPE pathogens: Klebesiella pneumonia; assay type: cell-based, Klebsiella pneumoniae; set-up: key: Growth; X: No Growth
Description: as §1

Pseudomonas aeruginosa = assay: Growth testing against ESKAPE pathogens: Pseudomonas aeruginosa; assay type: cell-based; set-up: key: Growth; X: No Growth
Description: as §1

Acinetobacter baumannii = assay: Growth testing against ESKAPE pathogens: Acinetobacter baumannii; assay type: cell-based; set-up: key: Growth; X: No Growth
Description: as §1

Staphylococcus aureus = assay: Growth testing against ESKAPE pathogens: Staphylococcus aureus; assay type: cell-based; set-up: key to Activity against Staphylococcus aureus (growth observed): Growth; X: No Growth
Description: as §1

CCCCCC(=O)N1CCN(c2cc3c(cc2F)c(=O)c(C(=O)OC2C(=O)N(c4ccc(OC)cc4)C2c2ccccc2Cl)cn3C2CC2)CC1 (centres unmarked) [Lactam 128]
G: Activity against Enterococcus faecium (growth observed) (Enterococcus faecium; 1 μg/ml) | Activity against Enterococcus faecium (growth observed) (Enterococcus faecium; 2 μg/ml) | Activity against Enterococcus faecium (growth observed) (Enterococcus faecium; 3 μg/ml) | Activity against Enterococcus faecium (growth observed) (Enterococcus faecium; 4 μg/ml) | Activity against Enterococcus faecium (growth observed) (Enterococcus faecium; 5 μg/ml) | Activity against Enterococcus faecium (growth observed) (Enterococcus faecium; 6 μg/ml) | Activity against Enterococcus faecium (growth observed) (Enterococcus faecium; 7 μg/ml) | Activity against Enterococcus faecium (growth observed) (Enterococcus faecium; 8 μg/ml) | Activity against Enterococcus faecium (growth observed) (Enterococcus faecium; 9 μg/ml) | Activity against Enterococcus faecium (growth observed) (Enterococcus faecium; 10 μg/ml) | Activity against Enterococcus faecium (growth observed) (Enterococcus faecium; 25 μg/ml) | Activity against Klebesiella pneumonia (growth observed) (Klebesiella pneumonia; 1 μg/ml) | Activity against Klebesiella pneumonia (growth observed) (Klebesiella pneumonia; 2 μg/ml) | Activity against Klebesiella pneumonia (growth observed) (Klebesiella pneumonia; 3 μg/ml) | Activity against Klebesiella pneumonia (growth observed) (Klebesiella pneumonia; 4 μg/ml) | Activity against Klebesiella pneumonia (growth observed) (Klebesiella pneumonia; 5 μg/ml) | Activity against Klebesiella pneumonia (growth observed) (Klebesiella pneumonia; 6 μg/ml) | Activity against Klebesiella pneumonia (growth observed) (Klebesiella pneumonia; 7 μg/ml) | Activity against Klebesiella pneumonia (growth observed) (Klebesiella pneumonia; 8 μg/ml) | Activity against Klebesiella pneumonia (growth observed) (Klebesiella pneumonia; 9 μg/ml) | Activity against Klebesiella pneumonia (growth observed) (Klebesiella pneumonia; 10 μg/ml) | Activity against Klebesiella pneumonia (growth observed) (Klebesiella pneumonia; 25 μg/ml) | Activity against Pseudomonas aeruginosa (growth observed) (Pseudomonas aeruginosa; 1 μg/ml) | Activity against Pseudomonas aeruginosa (growth observed) (Pseudomonas aeruginosa; 2 μg/ml) | Activity against Pseudomonas aeruginosa (growth observed) (Pseudomonas aeruginosa; 3 μg/ml) | Activity against Pseudomonas aeruginosa (growth observed) (Pseudomonas aeruginosa; 4 μg/ml) | Activity against Pseudomonas aeruginosa (growth observed) (Pseudomonas aeruginosa; 5 μg/ml) | Activity against Pseudomonas aeruginosa (growth observed) (Pseudomonas aeruginosa; 6 μg/ml) | Activity against Pseudomonas aeruginosa (growth observed) (Pseudomonas aeruginosa; 7 μg/ml) | Activity against Pseudomonas aeruginosa (growth observed) (Pseudomonas aeruginosa; 8 μg/ml) | Activity against Pseudomonas aeruginosa (growth observed) (Pseudomonas aeruginosa; 9 μg/ml) | Activity against Pseudomonas aeruginosa (growth observed) (Pseudomonas aeruginosa; 10 μg/ml) | Activity against Pseudomonas aeruginosa (growth observed) (Pseudomonas aeruginosa; 25 μg/ml) | Activity against Acinetobacter baumannii (growth observed) (Acinetobacter baumannii; 1 μg/ml) | Activity against Acinetobacter baumannii (growth observed) (Acinetobacter baumannii; 2 μg/ml) | Activity against Acinetobacter baumannii (growth observed) (Acinetobacter baumannii; 3 μg/ml) | Activity against Acinetobacter baumannii (growth observed) (Acinetobacter baumannii; 4 μg/ml) | Activity against Acinetobacter baumannii (growth observed) (Acinetobacter baumannii; 5 μg/ml) | Activity against Acinetobacter baumannii (growth observed) (Acinetobacter baumannii; 6 μg/ml) | Activity against Acinetobacter baumannii (growth observed) (Acinetobacter baumannii; 7 μg/ml) | Activity against Acinetobacter baumannii (growth observed) (Acinetobacter baumannii; 8 μg/ml) | Activity against Acinetobacter baumannii (growth observed) (Acinetobacter baumannii; 9 μg/ml) | Activity against Acinetobacter baumannii (growth observed) (Acinetobacter baumannii; 10 μg/ml) | Activity against Acinetobacter baumannii (growth observed) (Acinetobacter baumannii; 25 μg/ml) | Activity against Staphylococcus aureus (growth observed) (Staphylococcus aureus; 1 μg/ml) | Activity against Staphylococcus aureus (growth observed) (Staphylococcus aureus; 2 μg/ml) | Activity against Staphylococcus aureus (growth observed) (Staphylococcus aureus; 3 μg/ml) | Activity against Staphylococcus aureus (growth observed) (Staphylococcus aureus; 4 μg/ml) | Activity against Staphylococcus aureus (growth observed) (Staphylococcus aureus; 5 μg/ml) | Activity against Staphylococcus aureus (growth observed) (Staphylococcus aureus; 6 μg/ml) | Activity against Staphylococcus aureus (growth observed) (Staphylococcus aureus; 7 μg/ml) | Activity against Staphylococcus aureus (growth observed) (Staphylococcus aureus; 8 μg/ml) | Activity against Staphylococcus aureus (growth observed) (Staphylococcus aureus; 9 μg/ml) | Activity against Staphylococcus aureus (growth observed) (Staphylococcus aureus; 10 μg/ml) | Activity against Staphylococcus aureus (growth observed) (Staphylococcus aureus; 25 μg/ml)

CCCCCC(=O)N1CCN(c2cc3c(cc2F)c(=O)c(C(=O)OC2C(=O)N(SC(C)CC)C2c2ccccc2Cl)cn3C2CC2)CC1 (centres unmarked) [Lactam 129]
G: Activity against Enterococcus faecium (growth observed) (Enterococcus faecium; 1 μg/ml) | Activity against Enterococcus faecium (growth observed) (Enterococcus faecium; 2 μg/ml) | Activity against Enterococcus faecium (growth observed) (Enterococcus faecium; 3 μg/ml) | Activity against Enterococcus faecium (growth observed) (Enterococcus faecium; 4 μg/ml) | Activity against Enterococcus faecium (growth observed) (Enterococcus faecium; 5 μg/ml) | Activity against Enterococcus faecium (growth observed) (Enterococcus faecium; 6 μg/ml) | Activity against Enterococcus faecium (growth observed) (Enterococcus faecium; 7 μg/ml) | Activity against Enterococcus faecium (growth observed) (Enterococcus faecium; 8 μg/ml) | Activity against Enterococcus faecium (growth observed) (Enterococcus faecium; 9 μg/ml) | Activity against Enterococcus faecium (growth observed) (Enterococcus faecium; 10 μg/ml) | Activity against Enterococcus faecium (growth observed) (Enterococcus faecium; 25 μg/ml) | Activity against Klebesiella pneumonia (growth observed) (Klebesiella pneumonia; 1 μg/ml) | Activity against Klebesiella pneumonia (growth observed) (Klebesiella pneumonia; 2 μg/ml) | Activity against Klebesiella pneumonia (growth observed) (Klebesiella pneumonia; 3 μg/ml) | Activity against Klebesiella pneumonia (growth observed) (Klebesiella pneumonia; 4 μg/ml) | Activity against Klebesiella pneumonia (growth observed) (Klebesiella pneumonia; 5 μg/ml) | Activity against Klebesiella pneumonia (growth observed) (Klebesiella pneumonia; 6 μg/ml) | Activity against Klebesiella pneumonia (growth observed) (Klebesiella pneumonia; 7 μg/ml) | Activity against Klebesiella pneumonia (growth observed) (Klebesiella pneumonia; 8 μg/ml) | Activity against Klebesiella pneumonia (growth observed) (Klebesiella pneumonia; 9 μg/ml) | Activity against Klebesiella pneumonia (growth observed) (Klebesiella pneumonia; 10 μg/ml) | Activity against Klebesiella pneumonia (growth observed) (Klebesiella pneumonia; 25 μg/ml) | Activity against Pseudomonas aeruginosa (growth observed) (Pseudomonas aeruginosa; 1 μg/ml) | Activity against Pseudomonas aeruginosa (growth observed) (Pseudomonas aeruginosa; 2 μg/ml) | Activity against Pseudomonas aeruginosa (growth observed) (Pseudomonas aeruginosa; 3 μg/ml) | Activity against Pseudomonas aeruginosa (growth observed) (Pseudomonas aeruginosa; 4 μg/ml) | Activity against Pseudomonas aeruginosa (growth observed) (Pseudomonas aeruginosa; 5 μg/ml) | Activity against Pseudomonas aeruginosa (growth observed) (Pseudomonas aeruginosa; 6 μg/ml) | Activity against Pseudomonas aeruginosa (growth observed) (Pseudomonas aeruginosa; 7 μg/ml) | Activity against Pseudomonas aeruginosa (growth observed) (Pseudomonas aeruginosa; 8 μg/ml) | Activity against Pseudomonas aeruginosa (growth observed) (Pseudomonas aeruginosa; 9 μg/ml) | Activity against Pseudomonas aeruginosa (growth observed) (Pseudomonas aeruginosa; 10 μg/ml) | Activity against Pseudomonas aeruginosa (growth observed) (Pseudomonas aeruginosa; 25 μg/ml) | Activity against Acinetobacter baumannii (growth observed) (Acinetobacter baumannii; 1 μg/ml) | Activity against Acinetobacter baumannii (growth observed) (Acinetobacter baumannii; 2 μg/ml) | Activity against Acinetobacter baumannii (growth observed) (Acinetobacter baumannii; 3 μg/ml) | Activity against Acinetobacter baumannii (growth observed) (Acinetobacter baumannii; 4 μg/ml) | Activity against Acinetobacter baumannii (growth observed) (Acinetobacter baumannii; 5 μg/ml) | Activity against Acinetobacter baumannii (growth observed) (Acinetobacter baumannii; 6 μg/ml) | Activity against Acinetobacter baumannii (growth observed) (Acinetobacter baumannii; 7 μg/ml) | Activity against Acinetobacter baumannii (growth observed) (Acinetobacter baumannii; 8 μg/ml) | Activity against Acinetobacter baumannii (growth observed) (Acinetobacter baumannii; 9 μg/ml) | Activity against Acinetobacter baumannii (growth observed) (Acinetobacter baumannii; 10 μg/ml) | Activity against Acinetobacter baumannii (growth observed) (Acinetobacter baumannii; 25 μg/ml) | Activity against Staphylococcus aureus (growth observed) (Staphylococcus aureus; 1 μg/ml) | Activity against Staphylococcus aureus (growth observed) (Staphylococcus aureus; 2 μg/ml) | Activity against Staphylococcus aureus (growth observed) (Staphylococcus aureus; 3 μg/ml) | Activity against Staphylococcus aureus (growth observed) (Staphylococcus aureus; 4 μg/ml) | Activity against Staphylococcus aureus (growth observed) (Staphylococcus aureus; 5 μg/ml) | Activity against Staphylococcus aureus (growth observed) (Staphylococcus aureus; 6 μg/ml) | Activity against Staphylococcus aureus (growth observed) (Staphylococcus aureus; 7 μg/ml) | Activity against Staphylococcus aureus (growth observed) (Staphylococcus aureus; 8 μg/ml) | Activity against Staphylococcus aureus (growth observed) (Staphylococcus aureus; 9 μg/ml) | Activity against Staphylococcus aureus (growth observed) (Staphylococcus aureus; 10 μg/ml) | Activity against Staphylococcus aureus (growth observed) (Staphylococcus aureus; 25 μg/ml)
